Measurements published in US20250340847A1, “CELL CULTURE SYSTEM, USES THEREOF AND CELLS DERIVED THEREFROM” (UNIVERSITY OF PITTSBURGH-OF THE COMMONWEALTH SYSTEM OF …, priority 2022, published 2025).

Key:
CXCR4 = CXCR4 (Homo sapiens, UniProt P61073); conditions: 1p M AMD3465 beginning at day 0 of iDiscoid culture; day 5
Experimental: (§1) Signaling Pathway Inhibition. BMP4 signaling was inhibited via application of 3 μM Dorsomorphin into the normal media at day 3 of iDiscoid culture. NODAL signaling was inhibited via application of 10 μM SB431542 beginning at day 2 of iDiscoid culture. CXCR4 signaling was inhibited via application of 1p M AMD3465 beginning at day 0 of iDiscoid culture.

iGATA6 cells = experiment: Dox induction of GATA6 gene circuit in iGATA6 hiPSCs; assay type: cell-based, human; conditions: after treatment with Dox
Experimental: Generation of iDiscoid. The GATA6-engineered hiPSCs were seeded at a ratio of 4:1 with rtTA expressing hiPSCs either containing or lacking an mKate reporter gene at a total density of 25,000 cells per cm^2 in mTeSR-1 supplemented with […] Y-27632. The next day, the medium was changed to mTeSR-1 with […] doxycycline to induce expression of the GATA6 transgene and replaced daily for up to 5 days.
Time lapse Imaging. iGATA6 cells were seeded at 25,000 cells per cm^2 in a Cellstar 24-well tissue culture treated plate coated […], then induced with 1,000 ng ml^−1 Dox. After induction, the cells were placed under an Incucyte S3 live cell imaging platform at 37C and 5% CO2. Images were taken every 30 min for 3 days.

NODAL signaling [1] = experiment: NODAL signaling inhibition in iDiscoid culture, immunofluorescence; assay type: cell-based, human; conditions: 10 μM SB431542 beginning at day 2 of iDiscoid culture
Experimental: as §1
Staining on glass coverslips. Cells were grown on Matrigel-coated 8 mm diameter circular glass coverslips or on Mattek 35 mm coverslip bottom dishes. Cultures were fixed for 10 minutes in 4% paraformaldehyde (Electron Microscopy Sciences) at room temperature. For toluidine blue staining in FIG. 12B, cells were fixed for 1 hour in 2.5% glutaraldehyde in 0.01M PBS, pH 7.4, at room temperature. Coverslips were then washed three times with PBS followed by 15 minutes permeabilization with 0.2% Triton X-100 in PBS. Subsequently the coverslips were washed three times in washing buffer (0.05% Tween-20 in PBS) for 5 minutes and blocked for 20 minutes in […] wash buffer plus 5% normal donkey serum (Jackson ImmunoResearch Laboratories). The primary antibodies were diluted in 5% normal donkey serum in PBS and incubated with the tissues […] at room temperature followed by three washes in wash buffer for 5 minutes each. The secondary antibodies were diluted in 5% normal donkey serum in PBS and incubated with the tissues 1 hour at room temperature followed by three washes in wash buffer for 5 minutes each. Afterwards, the 8 mm coverslips were mounted on microscopy glass slides using ProLong Glass Antifade (Life Technologies), cured overnight at room temperature and then sealed with nail polish. Coverslips in Mattek dishes were stored in PBS at 4° C. for 3D imaging prior to mounting.
Image Acquisition and Processing. Images were acquired using the EVOS M700 automated scanning microscope, Leica SP8 confocal microscope, or Nikon A1 Confocal microscope and processed using ImageJ software (NIH). Any contrast adjustments were made in individual channels and applied evenly across the whole image in that channel. Contrast and color balance for color images was applied evenly across the whole image. 3D reconstructions were generated using the Nikon A1 confocal microscope to generate z-stacks spanning ˜100 um deep into the tissues and using ImageJ or Imaris (Bitplane) to construct a 3D volume from the stacks.

NODAL signaling [2] = experiment: Day 4 scRNAseq of iDiscoid after SB431542 application at day 2; assay type: cell-based, human
NODAL = target: T1, NODAL (Homo sapiens, UniProt Q96S42); conditions: cited from earlier work
T1 sequence (Q96S42 238-347): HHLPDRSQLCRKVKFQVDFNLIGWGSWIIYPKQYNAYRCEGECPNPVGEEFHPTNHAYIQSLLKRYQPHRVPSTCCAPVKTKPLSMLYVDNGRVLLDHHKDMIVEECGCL

BMP2 = target: T2, BMP2 (Homo sapiens, UniProt P12643); conditions: cited from earlier work
T2 sequence (P12643 283-396): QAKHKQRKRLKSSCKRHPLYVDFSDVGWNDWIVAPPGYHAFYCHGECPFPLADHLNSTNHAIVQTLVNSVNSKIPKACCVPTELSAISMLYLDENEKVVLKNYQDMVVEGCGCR

BMP4 = target: T3, BMP4 (Homo sapiens, UniProt P12644); conditions: cited from earlier work
T3 sequence (P12644 293-408): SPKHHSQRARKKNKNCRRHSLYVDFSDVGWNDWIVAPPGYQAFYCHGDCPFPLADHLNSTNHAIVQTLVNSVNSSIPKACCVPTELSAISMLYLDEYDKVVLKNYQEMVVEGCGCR

[3] = day 4, SB431542 applied at day 2

Chain of CXCR4 (P61073 whole entry): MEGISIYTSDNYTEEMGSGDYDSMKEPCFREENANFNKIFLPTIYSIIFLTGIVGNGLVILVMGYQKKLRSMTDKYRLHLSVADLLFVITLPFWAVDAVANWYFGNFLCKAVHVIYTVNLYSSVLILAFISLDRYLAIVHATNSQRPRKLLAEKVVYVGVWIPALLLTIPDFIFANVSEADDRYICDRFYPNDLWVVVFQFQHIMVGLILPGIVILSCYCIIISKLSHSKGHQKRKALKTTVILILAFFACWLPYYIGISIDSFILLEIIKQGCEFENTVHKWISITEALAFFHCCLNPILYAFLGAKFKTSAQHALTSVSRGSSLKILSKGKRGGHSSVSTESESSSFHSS

In the case of `c1ccc(CNCc2ccc(CN3CCCNCCNCCCNCC3)cc2)nc1` [AMD3465], the “upward migration and contiguous iGATA6 membrane formation” value (CXCR4) is reported as “substantially inhibits”.

For `C[C@H]1c2cccc(O)c2C(=O)C2=C(O)[C@]3(O)C(=O)C(C(N)=O)=C(O)[C@@H](N(C)C)[C@@H]3[C@@H](O)[C@@H]21` [Dox, Doxycycline], the “EGFP expression in iGATA6 cells” value (iGATA6 cells) was “upregulate” and the “pluripotency marker NANOG in iGATA6 cells” value (iGATA6 cells) was “loss”.

In the case of `NC(=O)c1ccc(-c2nc(-c3ccc4c(c3)OCO4)c(-c3ccccn3)[nH]2)cc1` [SB431542], the “ISL1-expressing cells within iDiscoids / ISL1 expression” value (NODAL signaling [1]) is reported as “lost”, the “cavity formation / cavity morphology” value (NODAL signaling [1]) is reported as “maintained” and the “expression of NANOG within the WT clusters” value (NODAL signaling [1]) is reported as “lost”. The “ISL1-expressing cells within iDiscoids / ISL1 expression” value (NODAL signaling [1]; listed as SB431542) was “substantial elimination”, the “cavity formation / cavity morphology” value (NODAL signaling [1]; listed as SB431542) was “preserved” and the “expression of NANOG within the WT clusters” value (NODAL signaling [1]; listed as SB431562) was “substantially decreased”. For the same molecule, the “system state after addition to the culture media” value (NODAL signaling [2]; SB431542 added to the media) was “acquire and maintain a state similar to early human and primate amnion”, the “NANOG expression within the WT (scRNAseq)” value (NODAL signaling [2]; [3]) was “lost” and the “pluripotency markers SOX2 and OCT4 within the WT (scRNAseq)” value (NODAL signaling [2]; [3]) was “retained”. For the same molecule, the “expression of the amnion marker ISL1 (scRNAseq)” value (NODAL signaling [2]; day 4, SB431542 applied at day 2, alongside CDX2, GATA3, AP-2γ) was “present in cluster 2”.

B1: human CER1: human Cerberus ortholog, cerberus 1 (CER1) polypeptide (protein, UniProt O95813 18-267, looked up)
Cerberus: TRHQDGRQNQSSLSPVLLPRNQRELPTGNHEEAEEKPDLFVAVPHLVATSPAGEGQRQREKMLSRFGRFWKKPEREMHPSRDSDSEPFPPGTQSLIQPIDGMKMEKSPLREEAKKFWHHFMFRKTPASQGVILPIKSHEVHWETCRTVPFSQTITHEGCEKVVVQNNLCFGKCGSVHFPGAAQHSHTSCSHCLPAKFTTMHLPLNCTELSSVIKVVMLVEECQCKVKTEHEDGHILHAGSQDSFIPGVSA
In the case of B1, the “affinity for NODAL” value (NODAL) is given as “high affinity”, the “affinity for BMP2” value (BMP2) is given as “minimal affinity” and the “affinity for BMP4” value (BMP4) is given as “minimal affinity”.
